Measured values from patent publication US20250197420A1, “MACROCYCLIC COMPOUNDS, COMPOSITIONS, AND METHODS OF USING THEREOF” (Sionna Therapeutics Inc., priority 2022, published 2025).

Key:
[1] = target: T1, Purified recombinant NBD1 (Homo sapiens, UniProt P13569); test: Aggregation analysis using differential static light scattering (DSLS): thermal stability of NBD1; format: binding; conditions: NBD1 0.2 mg/ml; Tagg of compound well minus average Tagg of DMSO control wells
T1 construct: Purified recombinant NBD1 was produced using previously described methods; made in house
In short: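 ΔTagg is compound-well aggregation temperature minus the DMSO-control mean, each Tagg being the inflection point of light scattering measured by DSLS during a 1 °C/min ramp up to 70 °C. The protein was purified NBD1 (0.2 mg/ml) in pH 7.6 buffer containing 2 mM ATP, 5 mM MgCl2 and 1% glycerol.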

[2] = tested on: Primary human bronchial epithelial cells from a ΔF508 homozygous CF donor (CF-HBE cells); test: TECC24 recording of CFTR-mediated transepithelial chloride transport, AUC fold over benchmark VX-809 @10 μM; format: cell-based; conditions: 48 hours incubation, AUC of forskolin-stimulated IEQ
In short: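 Values are the forskolin-to-inhibitor-172 AUC of equivalent Cl− current, derived from transepithelial voltage and resistance, divided by the VX-809 AUC and binned as A <3, B 3–6, C 6–20. Cells were pre-incubated with compound for 48 h at 36.5 °C; the bath (pH 7.4) received benzamil 10 μM, forskolin 10 μM, then CFTRinh-172 20 μM.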

T1 sequence (P13569 423-646 limits assumed): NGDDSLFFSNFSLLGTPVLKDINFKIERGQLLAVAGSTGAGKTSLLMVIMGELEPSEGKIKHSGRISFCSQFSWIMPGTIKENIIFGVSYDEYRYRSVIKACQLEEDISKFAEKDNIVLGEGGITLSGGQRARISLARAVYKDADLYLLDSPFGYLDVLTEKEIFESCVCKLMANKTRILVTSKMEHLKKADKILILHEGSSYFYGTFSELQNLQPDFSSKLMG

| Compound | DSLS (ΔTagg) [1] | TECC (test agent AUC divided by VX-809 AUC) [2] |
| --- | --- | --- |
| CN1CC(C)(C)CCCC(c2cccc(CCC(=O)O)c2)n2ccc(n2)-c2cc(ccc2F)Oc2c(F)cc3[nH]ccc3c2CCC1=O (stereo not drawn) [Compound 38, 3-[3-(23,29-difluoro-10,10,12-trimethyl-13-oxo-25-oxa-5,12,20,31-tetrazapentacyclo[24.3.1.12,5.016,24.017,21]hentriaconta-1(30),2(31),3,16,18,21,23,26,28-nonaen-6-yl)phenyl]propanoic acid] | A (an ΔTagg value less than or equal to 5 °C is marked “A”) | A (a TECC value less than 3 is marked “A”) |
| CN1CC(C)(C)CCCC(c2ccccc2)n2ccc(n2)-c2cc(ccc2F)Oc2c(F)cc3[nH]ccc3c2CCC1=O (stereo not drawn) [Compound 39, 23,29-difluoro-10,10,12-trimethyl-6-phenyl-25-oxa-5,12,20,31-tetrazapentacyclo[24.3.1.12,5.016,24.017,21]hentriaconta-1(30),2(31),3,16,18,21,23,26,28-nonaen-13-one] | A (an ΔTagg value less than or equal to 5 °C is marked “A”) | A (a TECC value less than 3 is marked “A”) |
| CN1CC(C)(C)CCCC(c2cccc(CCC(=O)O)c2)c2cnc([nH]2)-c2cc(ccc2F)Oc2c(F)cc3[nH]ccc3c2CCC1=O (stereo not drawn) [Compound 41, 3-[3-(23,29-Difluoro-10,10,12-trimethyl-13-oxo-25-oxa-3,12,20,31-tetrazapentacyclo[24.3.1.12,5.016,24.017,21]hentriaconta-1(30),2,4,16,18,21,23,26,28-nonaen-6-yl)phenyl]propanoic acid] | B (a value above 5 °C and less than or equal to 10 °C is marked “B”) | B (a value between 3 and 6 is marked “B”) |
| CN1CC(C)(C)OCCC(C)(c2ccccc2)c2cnc([nH]2)-c2cc(ccc2F)Oc2c(F)cc3[nH]ccc3c2CCC1=O (stereo not drawn) [Compound 43, 23,29-Difluoro-6,10,10,12-tetramethyl-6-phenyl-9,25-dioxa-3,12,20,31-tetrazapentacyclo[24.3.1.12,5.016,24.017,21]hentriaconta-1(30),2,4,16,18,21,23,26,28-nonaen-13-one] | A (an ΔTagg value less than or equal to 5 °C is marked “A”) | A (a TECC value less than 3 is marked “A”) |
| CN1CC(C)(C)CCCC(C)(c2cccc(CCC(=O)O)c2)c2nnc([nH]2)-c2cc(ccc2F)Oc2c(F)cc3[nH]ccc3c2CCC1=O (stereo not drawn) [Compound 44, 3-[3-(23,29-Difluoro-6,10,10,12-tetramethyl-13-oxo-25-oxa-3,4,12,20,31-pentazapentacyclo[24.3.1.12,5.016,24.017,21]hentriaconta-1(30),2,4,16,18,21,23,26,28-nonaen-6-yl)phenyl]propanoic acid] | C (a value greater than 10 °C and less than or equal to 25 °C is marked “C”) | C (a value between 6 and 20 is marked “C”) |
| CC1(C)CCC(C)(c2cccc(CCC(=O)O)c2)c2cnc([nH]2)-c2cc(ccc2F)Oc2c(F)cc3[nH]ccc3c2CCNC(=O)OC1 (stereo not drawn) [Compound 45, 3-[3-(23,29-Difluoro-6,9,9-trimethyl-12-oxo-11,25-dioxa-3,13,20,31-tetrazapentacyclo[24.3.1.12,5.016,24.017,21]hentriaconta-1(30),2,4,16(24),17(21),18,22,26,28-nonaen-6-yl)phenyl]propanoic acid] | C (a value greater than 10 °C and less than or equal to 25 °C is marked “C”) | B (a value between 3 and 6 is marked “B”) |
| CN1CC(C)(C)CCCC(C)(c2cccc(CCc3nnn[nH]3)c2)c2cnc([nH]2)-c2cc(ccc2F)Oc2c(F)cc3[nH]ccc3c2CCC1=O (stereo not drawn) [Compound 52, 23,29-Difluoro-6,10,10,12-tetramethyl-6-[3-[2-(1H-tetrazol-5-yl)ethyl]phenyl]-25-oxa-3,12,20,31-tetrazapentacyclo[24.3.1.12,5.016,24.017,21]-hentriaconta-1(30),2,4,16,18,21,23,26,28-nonaen-13-one] | C (a value greater than 10 °C and less than or equal to 25 °C is marked “C”) | A (a TECC value less than 3 is marked “A”) |
| CN1CC(C)(C)CCCCC(C)(c2cccc(CCC(=O)O)c2)c2cnc([nH]2)-c2cc(ccc2F)Oc2c(F)cc3[nH]ccc3c2CCC1=O (stereo not drawn) [Compound 61, 3-[3-(24,30-Difluoro-6,11,11,13-tetramethyl-14-oxo-26-oxa-3,13,21,32-tetrazapentacyclo[25.3.1.12,5.017,25.018,22]dotriaconta-1(31),2,4,17,19,22,24,27,29-nonaen-6-yl)phenyl]propanoic acid] | C (a value greater than 10 °C and less than or equal to 25 °C is marked “C”) | B (a value between 3 and 6 is marked “B”) |
| CN1CC(C)(C)CCCCC(C)(c2ccccc2)c2cnc([nH]2)-c2cc(ccc2F)Oc2c(F)cc3[nH]ccc3c2CCC1=O (stereo not drawn) [Compound 62, 24,30-Difluoro-6,11,11,13-tetramethyl-6-phenyl-26-oxa-3,13,21,32-tetrazapentacyclo[25.3.1.12,5.017,25.018,22]dotriaconta-1(31),2,4,17,19,22,24,27,29-nonaen-14-one] | A (an ΔTagg value less than or equal to 5 °C is marked “A”) | A (a TECC value less than 3 is marked “A”) |
| CN1CC(C)(C)CCCC(C)(c2ccc(CC(=O)O)cc2)c2cnc([nH]2)-c2cc(ccc2F)Oc2c(F)cc3[nH]ccc3c2CCC1=O (stereo not drawn) [Compound 63, 2-[4-(23,29-Difluoro-6,10,10,12-tetramethyl-13-oxo-25-oxa-3,12,20,31-tetrazapentacyclo[24.3.1.12,5.016,24.017,21]hentriaconta-1(30),2,4,16,18,21,23,26,28-nonaen-6-yl)phenyl]acetic acid] | B (a value above 5 °C and less than or equal to 10 °C is marked “B”) | A (a TECC value less than 3 is marked “A”) |
| CN1CCCCC(C)(c2cccc(CCC(=O)O)c2)c2cnc([nH]2)-c2cc(ccc2F)Oc2c(F)cc3[nH]ccc3c2CC1=O (stereo not drawn) [Compound 68, 3-[3-(21,27-Difluoro-6,11-dimethyl-12-oxo-23-oxa-3,11,18,29-tetrazapentacyclo[22.3.1.12,5.014,22.015,19]nonacosa-1(28),2,4,14,16,19,21,24,26-nonaen-6-yl)phenyl]propanoic acid] | B (a value above 5 °C and less than or equal to 10 °C is marked “B”) | A (a TECC value less than 3 is marked “A”) |
| CN1CC(C)(C)CCCC(C)(c2cccc(CCC(=O)O)c2)c2cnc([nH]2)-c2cc(ccc2F)Oc2c(F)c(F)c3[nH]ccc3c2CCC1=O (stereo not drawn) [Compound 70, 3-[3-(22,23,29-Trifluoro-6,10,10,12-tetramethyl-13-oxo-25-oxa-3,12,20,31-tetrazapentacyclo[24.3.1.12,5.016,24.017,21]hentriaconta-1(30),2,4,16,18,21,23,26,28-nonaen-6-yl)phenyl]propanoic acid] | C (a value greater than 10 °C and less than or equal to 25 °C is marked “C”) | A (a TECC value less than 3 is marked “A”) |
